Test results reported in US7846910B2, “Pharmaceutical composition, composition for screening therapeutics preventing and treating beta amyloid accumulation in brain comprising GCP II (glutamate carboxypeptidase II) as an active ingredient and method for screening using the same” (Korea Center for Disease Control and Prevention, priority 2005, dated 2010).

Key:
[1] = molecular target: T1, GCP-II (Mus musculus, UniProt O35409); test: GCP-II activity in brain tissue of mice treated with GCP-II inhibitor (3H-NAAG); assay type: in vivo; details: 10 mg/kg twice a week, 30 days
T1 construct: the cell membrane layer existed GCP-II was isolated from the mouse brain tissue; from tissue; host or cells: Brain membrane fraction of wild-type and APP Swedish/presenilin delta-9 transgenic mice
Protocol: (§1) To conform whether GCP-II can actually degrade over-expressing Aβ in vivo, the present inventors investigated Aβ degradation capacity by GCP-II inhibitor in a transgenic mouse over-expressing these Aβ. Concretely, after prepared genetically Aβover-expressing dementia model mouse (APP Swdish/presenilin delta 9 deltion, 12 weeks, The Hackson Laboratory, USA), injected into visceral cavity twice in a week, dosage of 10 mg/kg, 30 days. At this time, PBS used as a control. After finally injected GCP-II inhibitor, cerebral cortex, hippocampus and cerebellum in mouse brain was dissected and measured their weight respectively using microblance. And then, the above tissues were incubated in 6 M guanidine-hydrochrolide solution, room temperature, 4 hours and obtained supernatant by centrifugation after added iced PBS at 1/10 ratio. […] Then treated HRP (horseradish peroxidase) tagging secondly actibody, the above reactant was measured absorbance at 450 nm wavelength after treated stained using TMB (tetramethylbensidine). To conform whether GCP-II inhibitor was treated correctly, a part of the above mouse brain tissue were dissected and detected GCP-II activaty. […] In this manner, isolated sample were measured GCP-II activity using isotope meter.

[2] = tested on: Aβ40 and Aβ42; test: Aβ yield in cerebral cortex of mice treated with GCP-II inhibitor (ELISA); assay type: in vivo; details: transgenic mouse (APP Swedish/presenilin delta 9), 10 mg/kg into visceral cavity twice a week, 30 days, PBS control
Protocol: as §1

[3] = tested on: Aβ monomer and oligomer (multimer); test: Degradation of Aβ monomer and multimer by rGCP-II (Western blotting); assay type: biochemical; details: Aβ matured for 7 days, reacted 20 hours, increasing GCP-II concentration
Protocol: Western blotting was performed using anti-Aβ antibody (6E10) more than 5 times (FIG. 9A) and the results were quantified by an image program (Image J program, NIH, USA) (FIG. 9B).

[4] = tested on: endogenous Aβ42; test: Degradation of endogenous Aβ from swAPP stable HEK293 cells by rGCP-II (ELISA); assay type: biochemical, human; details: #2 colony of swAPP stable cells, 0, 0.5, 2.5 and 10[…]/μL of rGCP-II
Excerpt: To investigate whether human GCP-II can actually degrade endogenous Aβ a cell line stably expressing ^swAPP (Swedish mutant APP) gene involved in the over-production of Aβ was constructed. For this construction, ^swAPP was introduced into HEK293 cells, followed by selection with G418. The recovered medium was reacted with rGCP-II protein and then Aβ remaining unreacted in the medium was quantified by ELISA (FIG. 8).
The concentration of Aβ42 and the expression level of APP were used as standards for the selection of ^swAPP stable cell colonies. […] As a result, the level of endogenous Aβ42 was decreased. From the above result, it was confirmed that rGCP-II is able to degrade physiologically generated (endogenous) Aβ alike (FIG. 8B).

[5] = tested on: soluble Aβ40 and insoluble Aβ40; test: Degradation of soluble and insoluble Aβ from cerebral cortex by rGCP-II; assay type: biochemical
Protocol: The cerebral cortex was homogenized in 50 mM Tris-HCl (TBS) containing protease inhibitor cocktail (pH 7.6), followed by centrifugation at 4° C. with 100,000 g for 40 minutes. The supernatant was defined as a soluble fragment. The pellet was sonicated in 6 M guanidine-HCl solution containing protease inhibitor cocktail, which was defined as an insoluble fragment. The concentrations of each soluble Aβ and insoluble Aβ were measured.
The soluble Aβ or insoluble Aβ was co-cultured with rGCP-II.

[6] = Enzyme activity (Km) of purified rGCP-II, [3H] glutamate release; assay type: biochemical; details: 0.002-2 μM substrate, 37° C.
Protocol: The enzyme activity of rGCP-II was saturated from 1.0 μM of N-acetyl-L-aspartyl-L-[3,4-^3H] and as a result, the Km value of rGCP-II was determined to be 0.5 μM.

[7] = tested on: synthetic Aβ40 or Aβ42; test: Aβ degradation in HEK293 cells over-expressing GCP-II (ELISA of remaining Aβ in medium); assay type: cell-based, human
Protocol: To investigate the Aβ degradation by GCP-II, synthetic Aβ40 (FIG. 1A) or Aβ42 (FIG. 1B) was added to the cell culture solution containing HEK293 cells over-expressing GCP-II and HEK293 cells over-expressing NEP and IDE which are known as Aβ degrading enzymes. After reaction, the level of Aβ in the medium was measured by ELISA.
To measure the level of Aβ degradation by GCP-II, 2 ng/uL of synthetic Aβ40 or Aβ42 (Biosource international INC.) was added to HEK293 cell culture medium. Twenty hours later, the remaining Aβ in the medium was quantified by ELISA kit (Biosource international INC.).
HEK293 cells (human embryonic kidney cells) over-expressing GCP-II were temporarily transfected with GCP-II expression vector ‘pHA-GCPII’ or ‘pmyc-GCPII’ prepared in the above Example <1-1>, by using a transfection reagent (Lipofectamine Plus™ Reagent, Invitrogen, USA). The HEK293 cells with the temporary insertion of GCP-II were cultured in DMEM (Dulbecco's modified Eagle's medium) supplemented with 10% FBS (fetal bovine serum), 100 IU/ml of penicillin and 100[…]/ml of streptomycin. Cell lysate was obtained from the HEK293 cells by using RIPA buffer containing a protease inhibitor (aprotinin, leupeptin or phenylmethyl sulfonyl fluoride), and GCP-II protein was separated with 8% SDS-PAGE to examine the expression of GCP-II.
HEK293 cells transfected with NEP and IDE plasmids were used as a positive control and the cells transfected with mock vector were used as a negative control. The expressions of human GCP-II and NEP in the transfected HEK293 cells were investigated by Western blot analysis using anti-GCP-II antibody (MAB544B, Maine Biotechnology) or anti-NEP antibody (L-CD10-270, Novocastra) respectively (FIG. 1C).

[8] = tested on: Aβ40; test: Aβ degradation in primary cortical cells over-expressing GCP-II by lenti-virus (ELISA); assay type: cell-based, rat; details: infected by 10, 20 and 50 MOI for three days, Aβ40 added for 20 hours
Excerpt: To investigate whether Aβ degradation effect of GCP-II was still observed in cortical cells or not, GCP-II was over-expressed in primary cortical cells by using lenti-virus, and then the level of Aβ degradation was investigated.
To investigate whether the expression of GCP-II can degrade Aβ in cortical cells, GCP-II was over-expressed in the primary cortical cells by using lenti-virus, followed by investigation of Aβ degradation (FIG. 2). The primary cortical cells were separated and cultured from E16 rats (Sprague-Dawley rats). To prevent non-neuronal cells, which took less than 10% in the culture cells, from spreading, the cells were transferred and further cultured in a 24 well plate (1×10^5 cells/well) containing 5-fluoro-2-deoxyuridine from the 3-6 days after the first culture. To prepare lenti-virus expressing GCP-II, GCP-II was inserted into pLentiH1.2 vector (named ‘pLentiH1.2-GCPII’, which was then introduced into 293T cells along with pLentiH1.2-GCP-II and packaging construct and envelope construct. Forty eight hours later, the concentration of the virus released in the medium was measured.
The primary cortical cells were infected with Lenti-GCP-II for three days, to which Aβ40 was added for 20 hours. Then, the level of Aβ remaining in the medium was measured by ELISA as explained in Example 1. […]

[9] = tested on: amylin; test: GCP-II substrate specificity, MALDI-TOF molecular weight analysis; assay type: biochemical; details: 37° C. for 15 hours
Protocol: (§2) To investigate whether GCP-II degrades Aβ specifically, GCP-II was reacted with amylin and ACTH (adrenocorticotropic hormone) or insulin β-chain at 37° C. for 15 hours, followed by measuring the molecular weight of each sample with a molecular weight analyzer (FIG. 7).

[10] = tested on: ACTH (adrenocorticotropic hormone); test: as above; assay type: biochemical; details: 37° C. for 15 hours
Protocol: as §2

[11] = tested on: insulin β-chain; test: as above; assay type: biochemical; details: 37° C. for 15 hours
Protocol: as §2

[12] = GCP-II over-expressing HEK293 cells, compared with mock vector

T1 sequence (O35409 whole entry): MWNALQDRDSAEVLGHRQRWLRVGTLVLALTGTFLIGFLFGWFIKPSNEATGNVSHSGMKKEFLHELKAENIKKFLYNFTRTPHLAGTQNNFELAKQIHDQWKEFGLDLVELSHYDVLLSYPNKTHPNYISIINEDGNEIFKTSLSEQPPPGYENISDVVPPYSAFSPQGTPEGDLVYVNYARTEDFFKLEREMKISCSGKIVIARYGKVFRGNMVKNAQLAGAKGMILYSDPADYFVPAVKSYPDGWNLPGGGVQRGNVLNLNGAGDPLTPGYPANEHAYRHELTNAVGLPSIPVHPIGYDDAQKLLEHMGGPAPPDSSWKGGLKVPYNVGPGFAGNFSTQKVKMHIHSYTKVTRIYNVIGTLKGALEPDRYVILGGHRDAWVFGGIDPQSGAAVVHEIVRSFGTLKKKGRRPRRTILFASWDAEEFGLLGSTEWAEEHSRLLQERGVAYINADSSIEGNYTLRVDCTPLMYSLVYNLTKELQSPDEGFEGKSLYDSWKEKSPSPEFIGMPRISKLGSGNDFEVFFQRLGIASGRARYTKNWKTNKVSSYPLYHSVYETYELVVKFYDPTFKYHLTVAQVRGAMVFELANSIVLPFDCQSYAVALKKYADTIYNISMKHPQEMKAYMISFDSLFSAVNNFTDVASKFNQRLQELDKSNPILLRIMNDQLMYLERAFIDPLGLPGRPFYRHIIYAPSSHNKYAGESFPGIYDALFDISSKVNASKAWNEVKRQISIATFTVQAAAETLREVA

For `O=C(O)CCC(CP(=O)(O)O)C(=O)O` (stereo not shown) [2-PMPA], the “reduction of GCP-II activity in brain” value ([1]; transgenic mouse) was “about 30%”, the “reduction of GCP-II activity in brain” value ([1]; wild type mouse) was “about 50%” and the “increase of yield of Aβ42 in cerebral cortex versus control” value [2] was “about 30%”. The “yield of Aβ40 in cerebral cortex versus control” value [2] was “no significantly difference”.
In the case of “rGCP-II: recombinant GCP-II protein expressed in insect cells (Sf21) with baculovirus vector and purified on a Ni-chelating column”, the “degradation of Aβ oligomer versus monomer” value [3] is reported as “reduced faster than Aβ monomer”, the “level of endogenous Aβ42” value [4] is reported as “decreased” and the “reduction of insoluble Aβ40” value ([5]; insoluble fragment of cerebral cortex co-cultured with rGCP-II) is reported as 35%. For the same molecule, the “reduction of soluble Aβ40” value ([5]; soluble fragment of cerebral cortex co-cultured with rGCP-II) was 20% and the Km [6] was 0.5 µM.
With “GCP-II: transmembrane metalloproteinase glutamate carboxypeptidase II (SEQ. ID. NO: 2), over-expressed in cells from pHA-GCPII or pMyc-GCPII” the “decrease of Aβ40 level in cell culture medium” value [7, 12] was 30%, the “decrease of Aβ42 level in cell culture medium” value [7, 12] was 30% and the “level of Aβ remaining in the culture medium” value ([7]; HEK293 cells expressing GCP-II, 20 hours after addition of Aβ, compared with cells transfected with mock vector) was 60±5%. The “Aβ reduction in primary cortical cells” value [8] was “more than 90%”, the “degradation of amylin (MALDI-TOF peaks)” value [9] was “two peaks at 1500 and 2000” and the “degradation of ACTH” value [10] was “not degraded”. The “degradation of insulin β-chain” value [11] was “not degraded”.
